Assay results reported in patent US20040047863A1, “Combination therapy using a TNF binding protein for treating TNF-mediated diseases” (Amgen Inc., priority 1996, published 2004).

What was measured:
adjuvant arthritic rats [1] = assay: Adjuvant-induced arthritis model, combination of sTNFR-II Fc and methotrexate (Example 2); assay type: in vivo, rat
Description: An animal model of rheumatoid arthritis induced by an adjuvant was used to investigate the combination therapy of a TNF binding protein and methotrexate in male Lewis rats (5-7/group) weighing at least 200 g.
On day-0, all rats were injected with 100 μl of Freunds Complete Adjuvant (Sigma Chemical Co., St. Louis, Mo.) to which a synthetic adjuvant, N,N-dioctyldecyldecyl-N′, N-bis(2-hydroxy-ethyl) propanediamine, 50 mg/ml, was added. On day 0-14 methotrexate in 1% carboxymethylcellulose (Sigma) was orally administered daily (0.06 mg/kg) to two groups of rats. On days 9, 11, and 13, CHO-derived sTNFR-II/hIgG1 fusion protein (sTNFR-II Fc; prepared generally in accordance with the teachings of EP 418 014) formulated in pharmaceutical composition (34 mM NaCl, 10 mM sodium phosphate, 4% sorbitol (w/v) in water; pH 6.5) was administered by subcutaneous infusion (18 mg/kg) to one group of rats being treated with both Freunds Complete Adjuvant and methotrexate and to another group of rats being treated with Freunds Complete Adjuvant alone.
Body weights were taken on day 0 and every other day from day 9 to termination on day 15. Caliper measurements and clinical scoring were done daily from day 9 until termination on day 15. At this time animal's body, paw and spleen weights were determined.

adjuvant arthritic rats [2] = assay: Adjuvant-induced arthritis model, combination of c105 sTNFR-I dumbbell and methotrexate (Example 1); assay type: in vivo, rat
Description: An animal model of rheumatoid arthritis induced by an adjuvant was used to investigate the combination therapy of a TNF binding protein and methotrexate in male Lewis rats (3-7/group) weighing at least 200 g.
On day-0, all rats were injected with 100 μl of Freunds Complete Adjuvant (Sigma Chemical Co., St. Louis, Mo.) to which a synthetic adjuvant, N,N-dioctyldecyldecyl-N′, N-bis(2-hydroxy-ethyl) propanediamine, 50 mg/ml, was added. On days 0-14 methotrexate in 1% carboxymethylcellulose (Sigma) was orally administered daily (0.06 mg/kg) to two groups of rats. On days 8, 10, 12, and 14, E. coli-derived c105 sTNFR-I dimerized with PEG-20,000-bis-vinyl sulfone (c105 sTNFR-I dumbbell; prepared generally in accordance with the teachings of WO 95/34326) formulated in pharmaceutical composition (34 mM NaCl, 10 mM sodium phosphate, 4% sorbitol (w/v) in water; pH 6.5) was administered by subcutaneous (SC) injection (3 mg/kg) to one group of rats being treated with both Freunds Complete Adjuvant and methotrexate and to another group of rats being treated with Freunds Complete Adjuvant alone.
Body weights were taken on day 0 and every other day from day 9 to termination on day 15. Caliper measurements and clinical scoring were done on day 9 and every other day until termination. At this time animal's body, paw and spleen weights were determined.

[3] = system: MRL-1pr/1pr autoimmune mice challenged with LPS/D-GalNH2; assay: LPS/D-Galactosamine induced lethality model (Example 3); assay type: in vivo, mouse; conditions: N=6
Description: The combination immunotherapeutic effects of c105 STNFR-I dumbbell and fas fusion protein were assessed using a mouse model of D-Galactosamine (D-GalNH2) induced lethality. The D-galactosamine (D-GalNH2)/Lipopolysaccharide (LPS) model (Mountz et al., J. Immunology, 155:4829-4837). In this model, MRL-1pr/1pr autoimmune mice are administered D-GalNH2 with bacterial endotoxin (LPS), and lethality is observed through +96 hours post challenge.
After overnight fasting, 6-8 week old female MRL-1pr/1pr mice (Jackson Laboratory, Bar Harbor, Me.) (5/7/group) were cannulated with jugular catheters and allowed to recover for several days. They were then placed in infusion cages and acclimated for a week prior initiating saline infusion.
At hour-0, all mice were injected intraperitoneally with 31 micrograms of D-GalNH2 (Sigma) suspended in Hank's Balanced Salt Solution (Gibco BRL) (120 micrograms/ml); and lipopolysaccharide (LPS) from E. coli Serotype 0127:B8 (Sigma) in sterile, endotoxin-free phosphate buffered saline (PBS) (6 micrograms/mouse).
At 0-hour-+2 hours post-challenge, fas fusion protein formulated in a pharmaceutical composition (Phosphate buffered saline (Gibco BRL, Grand Island, N.Y.)) was administered intravenously in serial 2-fold dilutions (microgram/kg dosages) to two groups of mice. […]

[4] = male Lewis rats, Freunds Complete Adjuvant, sTNFR-II Fc 18 mg/kg subcutaneous days 9, 11, 13, methotrexate 0.06 mg/kg oral daily days 0-14
[5] = final analysis (inhibition at termination, day 15), c105 sTNFR-I dumbbell 3 mg/kg SC, methotrexate 0.06 mg/kg oral daily
[6] = male Lewis rats, Freunds Complete Adjuvant, c105 sTNFR-I dumbbell 3 mg/kg SC days 8, 10, 12, 14, methotrexate 0.06 mg/kg oral daily days 0-14
[7] = male Lewis rats, Freunds Complete Adjuvant, c105 sTNFR-I dumbbell 3 mg/kg SC days 8, 10, 12, 14, methotrexate 0.06 mg/kg oral daily days 0-14, as reported with FIGS. 3 and 4

Row | Molecule | inhibition of paw inflammation (terminal paw weights) (adjuvant arthritic rats [1]; final analysis (inhibition at termination, day 15), sTNFR-II Fc 18 mg/kg, methotrexate 0.06 mg/kg oral daily) [%] | inhibition of body weight change (adjuvant arthritic rats [1]; [4]) [%] | inhibition of paw swelling (area under the curve—AUC) (adjuvant arthritic rats [1]; [4]) [%] | inhibition of splenomegaly / spleen weight (adjuvant arthritic rats [1]; [4]) [%] | inhibition of body weight change (adjuvant arthritic rats [2]; [5]) [%] | inhibition of paw inflammation (terminal paw weights) (adjuvant arthritic rats [2]; [5]) [%] | inhibition of splenomegaly (terminal spleen weights) (adjuvant arthritic rats [2]; [5]) [%] | inhibition of paw swelling (area under the curve-AUC) (adjuvant arthritic rats [2]; [6]) | inhibition of body weight change (adjuvant arthritic rats [2]; [7]) | inhibition of splenomegaly / spleen weight (adjuvant arthritic rats [2]; [7]) | survival ([3]; c105 sTNFR-I dumbbell 100 micrograms/kg I.V., time=−1 hour before challenge, P<0.01 vs saline control) [%] | protection ([3]; sub-optimal dose 25 micrograms/kg, through +96 hours after challenge) [%]
1 | N-[4-[(2,4diamino-6-pteridinyl)methylamino]benzoyl]-L-glutamic acid [methotrexate] | 74 | 64 | 66 | 74 | 3 | 3.9 | 8.5 | 26% | 3% | no inhibition | – | –
2 | c105 sTNFR-I dumbbell: E. coli-derived c105 sTNFR-I dimerized with PEG-20,000-bis-vinyl sulfone (protein, UniProt P19438 30-211, looked up, extracellular domain c105 truncation; PEG-20000-bis-vinyl sulfone dimer, E. coli-derived c105 sTNFR-I dimerized with PEG-20,000-bis-vinyl sulfone) extracellular domain: LVPHLGDREKRDSVCPQGKYIHPQNNSICCTKCHKGTYLYNDCPGPGQDTDCRECESGSFTASENHLRHCLSCSKCRKEMGQVEISSCTVDRDTVCGCRKNQYRHYWSENLFQCFNCSLCLNGTVHLSCQEKQNTVCTCHAGFFLRENECVSCSNCKKSLECTKLCLPQIENVKGTEDSGTT | – | – | – | – | 13.2 | 10.9 | 30.4 | about 42% | about 13.2% | no significant benefit | 100 | −35
